# Measured values: US7071163B2, “Compounds for targeting hepatocytes in vivo” (Mirus Bio Corporation, priority 2002, dated 2006)
# Peptide text beside a SMILES is read from it. * marks the point of attachment. Biotin = O=C1N[C@H]2[C@H](CS[C@H]2CCCCC(=O)*)N1; PEG4 = NCCOCCOCCOCCOCCC(=O)O
# B1: p17-K211: bacterially expressed His-tagged full-length wild-type T7 p17 tail fiber protein (SEQ ID 4) (protein)
# chain: MGSSHHHHHHSSGLVPRGSHMANVIKTVLTYQLDGSNRDFNIPFEYLARKFVVVTLIGVDRKVLTINTDYRFATRTTISLTKAWGPADGYTTIELRRVTSTTDRLVDFTDGSILRAYDLNVAQIQTMHVAEEARDLTTDTIGVNNDGHLDARGRRIVNLANAVDDRDAVPFGQLKTMNQNSWQARNEALQFRNEAETFRNQAEGFKNESSTNATNTKQWRDETKGFRDEAKRFKNTAGQYATSAGNSASAAHQSEVNAENSATASANSAHLAEQQADRAEREADKLENYNGLAGAIDKVDGTNVYWKGNIHANGRLYMTTNGFDCGQYQQFFGGVTNRYSVMEWGDENGWLMYVQRREWTTAIGGNIQLVVNGQIITQGGAMTGQLKLQNGHVLQLESASDKAHYILSKDGNRNNWYIGRGSDNNNDCTFHSYVHGTTLTLKQDYAVVNKHFHVGQAVVATDGNIQGTKWGGKWLDAYLRDSFVAKSKAWTQVWSGSAGGGVSVTVSQDLRFRNIWIKCANNSWNFFRTGPDGIYFIASDGGWLRFQIHSNGLGFKNIADSRSVPNAIMVENE
# modifications: His tag; Bacteriophage T7
# What was measured:
# [1] = system: mouse hepatocytes; experiment: Delivery of biotinylated Cy3-dextran and Cy3-siRNA by MC892-SA conjugate; assay type: in vivo
# Procedure: B. Delivery of biotinylated cargo by SA-p17 peptide conjugates. […] 2 mg SA was dissolved in 200 μl dH2O and added to a 200 μl 100 mM sodium phosphate/300 mM NaCl/2 mM EDTA, pH 7.2. A 10 mole equivalent of SPDP (Pierce) dissolved in DMF at 10 mg/ml was then added to the SA solution and mixed at RT for 1 h. The SPDP-modified streptavidin was then purified using a G-25 Sephadex column. It was determined that each SA molecule contained an average of 1.8 PDP groups based on a pyridine-2-thione assay. The SA-PDP conjugate was added to MC892 at a 1:18 molar ratio and incubated for 24 h at 4° C. The MC892-SA conjugates were purified on a G-25 Sephadex column. The sample was then freeze-dried and dissolved in a solution of 25 mM MES, 125 mM NaCl, pH 6.5 at 3 mg/ml.
# One mg of NHS-PEG4-Biotin suspended in dry DMF at 10 mg/ml was added to 30 mg amino dextran (Molecular Probes, 70 kDa, 17.9 mole amine per polymer) that was dissolved in 0.1 M NaHCO3 at 10 mg/ml (molar ratio of 4.5 to 1). This solution was mixed overnight at room temperature, transferred into cellulose tubing (Fisher, 12–14,000 MWCO) and dialyzed once against 20 L 20 mM NH4Cl followed twice against 5 L dH20. The dialyzed sample was lyophilized. The sample was then dissolved in dH2O at 30 mg/ml. Each dextran polymer was estimated to contain an average of 0.5 biotin group. This biotinylated dextran was fluorescently labeled with Cy3-OSu (Amersham) at a weight ratio of 1:0.074. Excess free dye was removed using a Sephadex G-50 column. Labeled dextran was eluted in 25 mM NH4CO3. The sample was freeze dried and resuspended at 7.5 mg/ml in 25 mM HEPES/125 mM NaCl, pH 8.0. Biotinylated siRNA (5′-biotin-LC-siRNA, Dharmacon) was labeled with Cy3 using Cy3 LabelIT (Mirus Corp) according to manufacturer's instructions. […]
# Liver samples were removed 10 min after injection, placed into OCT freezing medium and snap frozen in liquid nitrogen. […] Processed slides were mounted in Vectorshield (Vector Laboratories, Burlingame, Calif.) and analyzed using a Zeiss LSM510 confocal microscope.
# [2] = system: hepatocytes; experiment: Delivery of Cy3-streptavidin by biotinylated synthetic p17 peptide, monkey; assay type: in vivo, Cyno monkey; details: b107 says ratio 18:1, method b106 13:1, 10 min
# Procedure: A. Delivery of streptavidin (SA) by a biotinylated p17 peptide (MC893). […] Purified peptide was mixed with 250 μg of Cy3-labled SA (Jackson ImmunoResearch Laboratories, Inc. West Grove, Pa.) at peptide to SA molar ratios of 1.2:1, 9:1, 18:1, 45: 1, and 90:1 in a solution containing 25 mM HEPES, 125 mM NaCl, pH 8. The mixtures were injected into mice via the tail vein (400 μl injection volume). For monkey injection, 3.3 mg MC893 peptide was mixed with 3 mg of Cy3-SA, a 13:1 molar ratio, and purified using a G50 column. The sample was recovered in 12 ml 25 mM HEPES, 125 mM NaCl, pH 8 and slowly injected into a Cyno monkey via a subcutaneous vein in the arm. All animals were sacrificed 10 min after injection and liver samples were excised and frozen tissue sections prepared and placed onto microscopic slides. Air dried tissue sections were fixed and counterstained with Alexa 488 phalloidin and To-Pro-3 as previously described and analyzed by confocal microcopy.
# [3] = system: hepatocytes; experiment: Delivery of Cy3-streptavidin by biotinylated synthetic p17 peptide, mouse; details: peptide to SA molar ratio of 18:1, 10 min
# Procedure: Purified peptide was mixed with 250 μg of Cy3-labled SA (Jackson ImmunoResearch Laboratories, Inc. West Grove, Pa.) at peptide to SA molar ratios of 1.2:1, 9:1, 18:1, 45: 1, and 90:1 in a solution containing 25 mM HEPES, 125 mM NaCl, pH 8. The mixtures were injected into mice via the tail vein (400 μl injection volume). […] All animals were sacrificed 10 min after injection and liver samples were excised and frozen tissue sections prepared and placed onto microscopic slides. Air dried tissue sections were fixed and counterstained with Alexa 488 phalloidin and To-Pro-3 as previously described and analyzed by confocal microcopy.
# The ability of biotin-peptide conjugates to target Cy3-labeled streptavidin to hepatocytes in mice is determined by confocal fluorescent microscopy as described above.
# [4] = system: monkey hepatocytes; experiment: Targeting of recombinant p17 proteins to monkey hepatocytes; assay type: in vivo; details: 500 μg via subcutaneous vein in arm, 1 h
# Procedure: 6. Targeting of recombinant p17 proteins to monkey hepatocytes. Recombinant full-length p17 proteins were prepared as previously described. Purified p17 proteins, 500 μg of p17-K211 or p17-E211 in 33 ml of PBS, were slowly injected into monkeys via subcutaneous vein in arm. Liver samples were excised 1 h after injection, submerged in O.C.T. freezing medium and snap frozen in liquid nitrogen. Frozen liver sections (5–7 μm) were prepared using a cryostat and air-dried. Immunofluorescence detection for p17 proteins was performed as described above. Liver sections from an uninjected monkey were used as a control. Images represent an area of 75 μm^2 from a flattened composite of 8 consecutive confocal optical sections (each 0.4 μm thick). P17 is seen in black, cell nuclei in gray, F-actin in gray near basolateral membranes and in near bile capillary membranes.
molecule,measurement,setting,value
Cys-PEG4-Lys-Asn-Glu-Ser-Ser-Thr-Asn-Ala-Thr-Asn-Thr-Lys-Gln-Trp-Arg-Asp-Glu-Thr-Lys-Gly-Phe-Arg-Asp-Glu-Ala-Lys211-Arg-Phe-Lys-Asn-Thr-Ala-Gly [MC892],Cy3-dextran signal in hepatocytes,"[1]; MC892-SA with biotinylated Cy3-dextran, 20 min (not shown)",internalized Cy3-dextran signals found in clusters near cell nuclei
same,Cy3-dextran signal in hepatocytes,"[1]; MC892-SA with biotinylated Cy3-labeled 70 kDa dextran, 10 min after injection",high levels of Cy3-dextran signal was observed inside hepatocytes
same,targeting of Cy3-siRNA to liver,"[1]; MC892-SA with biotinylated Cy3-siRNA, 10 min",successful targeting of siRNA to the liver
C[C@H](NC(=O)[C@H](CCC(=O)O)NC(=O)[C@H](CC(=O)O)NC(=O)[C@H](CCCNC(=N)N)NC(=O)[C@H](Cc1ccccc1)NC(=O)CNC(=O)[C@H](CCCCN)NC(=O)[C@@H](NC(=O)[C@H](CCC(=O)O)NC(=O)[C@H](CC(=O)O)NC(=O)[C@H](CCCNC(=N)N)NC(=O)[C@H](Cc1c[nH]c2ccccc12)NC(=O)[C@H](CCC(N)=O)NC(=O)[C@H](CCCCN)NC(=O)[C@@H](NC(=O)[C@H](CC(N)=O)NC(=O)[C@@H](NC(=O)[C@H](C)NC(=O)[C@H](CC(N)=O)NC(=O)[C@@H](NC(=O)[C@H](CO)NC(=O)[C@H](CO)NC(=O)[C@H](CCC(=O)O)NC(=O)[C@H](CC(N)=O)NC(=O)[C@H](CCCCN)NC(=O)CCOCCOCCOCCOCCNC(=O)CCOCCOCCOCCOCCNC(=O)CCCC[C@@H]1SC[C@@H]2NC(=O)N[C@@H]21)[C@@H](C)O)[C@@H](C)O)[C@@H](C)O)[C@@H](C)O)C(=O)N[C@@H](CCCCN)C(=O)N[C@@H](CCCNC(=N)N)C(=O)N[C@@H](Cc1ccccc1)C(=O)N[C@@H](CCCCN)C(=O)N[C@@H](CC(N)=O)C(=O)N[C@H](C(=O)N[C@@H](C)C(=O)NCC(=O)O)[C@@H](C)O [MC893] ({Biotin-PEG4-PEG4}-KNESSTNATNTKQWRDETKGFRDEAKRFKNTAG-OH),targeting of Cy3-SA to hepatocytes,[2],efficiently targeted Cy3-SA to hepatocytes
same,targeting of Cy3-SA to hepatocytes,[3],efficiently targeted Cy3-SA to hepatocytes
B1,liver localization of p17 protein in monkey,[4],efficiently targets to monkey hepatocytes
